In patent publication US20240409573A1, “CALICHEAMICIN DERIVATIVES AND ANTIBODY DRUG CONJUGATES THEREOF” (priority 2017, published 2024):

What was measured:
[1] = test system: HT29 cells, Her2-non-expressing; experiment: In vitro cell assay, cell viability by MTS, HT29; format: cell-based; details: Homo sapiens, HT-29, 96 h, read-out: Average IC50, HT29
Experimental: (§1) Her2-Target expressing (BT474 (breast cancer), N87 (gastric cancer), MDA-MB-361-DYT2 (breast cancer)) or Her2-non-expressing (MDA-MB-468, HT29) cells, or 0033-target expressing HL60, HEL92.1.7, NB4, TF-1 or 0033-non-expressing (Raji) cells were seeded in 96-well cell culture plates for 24 hours before treatment. Cells were treated with 3-fold serially diluted antibody-drug conjugates or free compounds (i.e., no antibody conjugated to the drug) in duplicate at 10 concentrations. Cell viability was determined by CellTiter 96® AQueous One Solution Cell Proliferation MTS Assay (Promega, Madison WI) 96 hours after treatment. Relative cell viability was determined as percentage of untreated control. IC50 values were calculated using a four parameter logistic model #203 with XLfit v4.2 (IDBS, Guildford, Surry, UK). Results are shown below in Table 3 (for payloads), Table 4 (for Herceptin conjugates), and Table 5 (for CD33 conjugates).

[2] = test system: HL60 cells, CD33-target expressing; experiment: In vitro cell assay, cell viability by MTS, HL60; format: cell-based; details: Homo sapiens, HL-60, 96 h, read-out: Average IC50, HL-60
Experimental: as §1

[3] = test system: TF-1 cells, CD33-target expressing; experiment: In vitro cell assay, cell viability by MTS, TF-1; format: cell-based; details: Homo sapiens, TF-1, 96 h, read-out: Average IC50, TF-1
Experimental: as §1

[4] = test system: NB4 cells, CD33-target expressing; experiment: In vitro cell assay, cell viability by MTS, NB4; format: cell-based; details: Homo sapiens, NB-4, 96 h, read-out: Average IC50, NB4
Experimental: as §1

[5] = test system: N87 (gastric cancer) cells, Her2-target expressing; experiment: In vitro cell assay, cell viability by MTS, N87; format: cell-based; details: 96 h, read-out: Average IC50, N87
Experimental: as §1

[6] = test system: Raji cells, CD33-non-expressing; experiment: In vitro cell assay, cell viability by MTS, Raji; format: cell-based; details: Homo sapiens, 96 h, read-out: Average IC50, Raji
Experimental: as §1

[7] = test system: HEL92.1.7 cells, CD33-target expressing; experiment: In vitro cell assay, cell viability by MTS, HEL92.1.7; format: cell-based; details: Homo sapiens, HEL 92.1.7, 96 h, read-out: Average IC50, HEL92.1.7
Experimental: as §1

[8] = test system: MDA-MB-361-DYT2 (breast cancer) cells, Her2-target expressing; experiment: In vitro cell assay, cell viability by MTS, MDA-MB-361-DYT2; format: cell-based; details: 96 h, read-out: Average IC50, MDA-MB-361-DYT2
Experimental: as §1

[9] = test system: TF-1 AML xenograft tumors; experiment: TF-1 AML subcutaneous xenograft model; format: in vivo, female Athymic nu/nu mice; details: Mylotarg dosed at 1 mg/kg Q4dx4 intravenously
Experimental: The cyno-human chimeric anti 0033 antibody, 11A1, was conjugated to various linker-payloads (as per 0033 conjugates in Examples 50-110) and tested in Acute Myeloid Leukemia (AML) xenograft models. For each model described below the first dose was given on Day 0. The tumors were measured at least once a week and their volume was calculated with the formula: tumor volume (mm^3)=0.5×(tumor width^2)(tumor length). The mean tumor volumes (±S.E.M.) for each treatment group were calculated having a maximum of 10 animals and a minimum of 4 animals to be included. All animal experiments were conducted in a facility accredited by the Association for Assessment of Laboratory Animal Care under Institutional Animal Care and Use Committee guidelines and appropriate animal research approval.
The effects of anti-CD33 ADCs were examined in immunodeficient mice on the in vivo growth of human tumors. For subcutaneous (sc) AML models, 10×10^6 TF-1 cells were implanted subcutaneously in the flank of female Athymic nu/nu mice. When the tumors reached an average volume of 300 mm^3, animals were staged to ensure uniformity of the tumor size among various treatment groups. The TF-1 AML sc xenograft model was dosed intravenously one time every four days for four cycles (Q4dx4) with PBS vehicle or humanized anti-CD33 […] at the doses provided in Tables 11-13.

Compound: CCN(CC(=O)O)[C@H]1CO[C@@H](O[C@H]2[C@H](O[C@H]3C#C/C=C\C#C[C@]4(O)CC(=O)C(NC(=O)OC)=C3/C4=C\CSSC(C)C)O[C@H](C)[C@@H](NO[C@H]3C[C@H](O)[C@H](SC(=O)c4c(C)c(I)c(O[C@@H]5O[C@@H](C)[C@H](O)[C@@H](OC)[C@H]5O)c(OC)c4OC)[C@@H](C)O3)[C@@H]2O)C[C@@H]1OC [Example P50]
- IC50 [1]: 0.775 nM
- IC50 [2]: 0.372 nM
- IC50 [3]: 17.9 nM
- IC50 [4]: 0.127 nM
- IC50 [5]: 1.05 nM
- IC50 [6]: 0.438 nM
- IC50 [7]: 3.93 nM
- IC50 [8]: 7.33 nM

Compound: Mylotarg®: "anti-CD33 humanized monoclonal antibody conjugated to calicheamicin for the treatment of acute myelogenous leukemia"
- efficacy in TF-1 AML xenografts [9]: ineffective

Compound: CCN[C@H]1CO[C@@H](O[C@H]2[C@H](O[C@H]3C#C/C=C\C#C[C@]4(O)CC(=O)C(NC(=O)OC)=C3/C4=C\CSSC3CCNCC3)O[C@H](C)[C@@H](NO[C@H]3C[C@H](O)[C@H](SC(=O)c4c(C)c(I)c(O[C@@H]5O[C@@H](C)[C@H](O)[C@@H](OC)[C@H]5O)c(OC)c4OC)[C@@H](C)O3)[C@@H]2O)C[C@@H]1OC [Example P16]
- IC50 [1]: 0.035 nM
- IC50 [2]: 0.024 nM
- IC50 [3]: 0.15 nM
- IC50 [4]: 0.015 nM
- IC50 [5]: 0.023 nM
- IC50 [6]: 0.077 nM
- IC50 [7]: 0.071 nM
- IC50 [8]: 0.045 nM

Compound: CCN[C@H]1CO[C@@H](O[C@H]2[C@H](O[C@H]3C#C/C=C\C#C[C@]4(O)CC(=O)C(NC(=O)OC)=C3/C4=C\CSSc3ccccc3)O[C@H](C)[C@@H](NO[C@H]3C[C@H](O)[C@H](SC(=O)c4c(C)c(I)c(O[C@@H]5O[C@@H](C)[C@H](O)[C@@H](OC)[C@H]5O)c(OC)c4OC)[C@@H](C)O3)[C@@H]2O)C[C@@H]1OC [Example P10]
- IC50 [1]: 0.03 nM
- IC50 [2]: 0.004 nM
- IC50 [3]: 0.029 nM
- IC50 [4]: 0.003 nM
- IC50 [5]: 0.031 nM
- IC50 [6]: 0.005 nM
- IC50 [7]: 0.004 nM
- IC50 [8]: 0.025 nM

Compound: CCN[C@H]1CO[C@@H](O[C@@H]2C(O)[C@H](NO[C@H]3C[C@H](O)[C@H](SC(=O)c4c(C)c(I)c(O[C@@H]5O[C@@H](C)[C@H](O)[C@@H](OC)[C@H]5O)c(OC)c4OC)[C@@H](C)O3)[C@@H](C)O[C@H]2O[C@H]2C#C/C=C\C#C[C@]3(O)CC(=O)C(NC(=O)OC)=C2/C3=C\CSSC(C)(C)CCC(=O)NCCCC[C@H](N)C(=O)O)C[C@@H]1OC (stereo in doubt) [Example P43]
- IC50 [1]: 3.18 nM
- IC50 [2]: 1.36 nM
- IC50 [3]: 9.01 nM
- IC50 [4]: 0.516 nM
- IC50 [5]: 1.23 nM
- IC50 [6]: 2.85 nM
- IC50 [7]: 4.9 nM
- IC50 [8]: 6.4 nM

Compound: CCN[C@H]1CO[C@@H](O[C@H]2[C@H](O[C@H]3C#C/C=C\C#C[C@]4(O)CC(=O)C(NC(=O)OC)=C3/C4=C\CSSC(C)C(=O)OCC)O[C@H](C)[C@@H](NO[C@H]3C[C@H](O)[C@H](SC(=O)c4c(C)c(I)c(O[C@@H]5O[C@@H](C)[C@H](O)[C@@H](OC)[C@H]5O)c(OC)c4OC)[C@@H](C)O3)[C@@H]2O)C[C@@H]1OC (stereo partly shown) [Example P11]
- IC50 [1]: 0.006 nM
- IC50 [2]: 0.002 nM
- IC50 [3]: 0.03 nM
- IC50 [4]: 0.001 nM
- IC50 [5]: 0.007 nM
- IC50 [6]: 0.002 nM
- IC50 [7]: 0.003 nM
- IC50 [8]: 0.008 nM

Compound: CCN[C@H]1CO[C@@H](O[C@H]2[C@H](O[C@H]3C#C/C=C\C#C[C@]4(O)CC(=O)C(NC(=O)OC)=C3/C4=C\CSSC(C)(C)CC(=O)NN)O[C@H](C)[C@@H](NO[C@H]3C[C@H](O)[C@H](SC(=O)c4c(C)c(I)c(O[C@@H]5O[C@@H](C)[C@H](O)[C@@H](OC)[C@H]5O)c(OC)c4OC)[C@@H](C)O3)[C@@H]2O)C[C@@H]1OC [Example P7]
- IC50 [1]: 0.075 nM
- IC50 [2]: 0.124 nM
- IC50 [3]: > 90 nM
- IC50 [4]: 0.152 nM
- IC50 [5]: 0.046 nM
- IC50 [6]: 0.161 nM
- IC50 [7]: 1.22 nM
- IC50 [8]: 1.03 nM

Compound: CCN[C@H]1CO[C@@H](O[C@H]2[C@H](O[C@H]3C#C/C=C\C#C[C@]4(O)CC(=O)C(NC(=O)OC)=C3/C4=C\CSSc3ccccn3)O[C@H](C)[C@@H](NO[C@H]3C[C@H](O)[C@H](SC(=O)c4c(C)c(I)c(O[C@@H]5O[C@@H](C)[C@H](O)[C@@H](OC)[C@H]5O)c(OC)c4OC)[C@@H](C)O3)[C@@H]2O)C[C@@H]1OC [Example P4]
- IC50 [1]: 0.094 nM
- IC50 [2]: 0.017 nM
- IC50 [3]: 0.184 nM
- IC50 [4]: 0.011 nM
- IC50 [5]: 0.086 nM
- IC50 [6]: 0.056 nM
- IC50 [7]: 0.036 nM
- IC50 [8]: 0.033 nM

Compound: CCN[C@H]1CO[C@@H](O[C@@H]2C(O)[C@H](NO[C@H]3C[C@H](O)[C@H](SC(=O)c4c(C)c(I)c(O[C@@H]5O[C@@H](C)[C@H](O)[C@@H](OC)[C@H]5O)c(OC)c4OC)[C@@H](C)O3)[C@@H](C)O[C@H]2O[C@H]2C#C/C=C\C#C[C@]3(O)CC(=O)C(NC(=O)OC)=C2/C3=C\CSS[C@H](C)CO)C[C@@H]1OC (stereo in doubt) [Example P47]
- IC50 [1]: 1.4 nM
- IC50 [2]: 0.054 nM
- IC50 [3]: 0.737 nM
- IC50 [4]: 0.04 nM
- IC50 [5]: 1.87 nM
- IC50 [6]: 0.05 nM
- IC50 [7]: 0.141 nM
- IC50 [8]: 6.54 nM

Compound: CCN[C@H]1CO[C@@H](O[C@H]2[C@H](O[C@H]3C#C/C=C\C#C[C@]4(O)CC(=O)C(NC(=O)OC)=C3/C4=C\CSSc3ccccc3C(=O)O)O[C@H](C)[C@@H](NO[C@H]3C[C@H](O)[C@H](SC(=O)c4c(C)c(I)c(O[C@@H]5O[C@@H](C)[C@H](O)[C@@H](OC)[C@H]5O)c(OC)c4OC)[C@@H](C)O3)[C@@H]2O)C[C@@H]1OC [Example P3]
- IC50 [1]: 0.69 nM
- IC50 [2]: 0.149 nM
- IC50 [3]: 1.64 nM
- IC50 [4]: 0.081 nM
- IC50 [5]: 0.309 nM
- IC50 [6]: 0.378 nM
- IC50 [7]: 0.371 nM
- IC50 [8]: 1.75 nM

Compound: CCN[C@H]1CO[C@@H](O[C@H]2[C@H](O[C@H]3C#C/C=C\C#C[C@]4(O)CC(=O)C(NC(=O)OC)=C3/C4=C\CSSC(C)(C)C(=O)O)O[C@H](C)[C@@H](NO[C@H]3C[C@H](O)[C@H](SC(=O)c4c(C)c(I)c(O[C@@H]5O[C@@H](C)[C@H](O)[C@@H](OC)[C@H]5O)c(OC)c4OC)[C@@H](C)O3)[C@@H]2O)C[C@@H]1OC [Example P12]
- IC50 [1]: 0.687 nM
- IC50 [2]: 0.04 nM
- IC50 [3]: 0.245 nM
- IC50 [4]: 0.005 nM
- IC50 [5]: 0.64 nM
- IC50 [6]: 0.033 nM
- IC50 [7]: 0.102 nM
- IC50 [8]: 4.16 nM

Compound: CCN[C@H]1CO[C@@H](O[C@@H]2C(O)[C@H](NO[C@H]3C[C@H](O)[C@H](SC(=O)c4c(C)c(I)c(O[C@@H]5O[C@@H](C)[C@H](O)[C@@H](OC)[C@H]5O)c(OC)c4OC)[C@@H](C)O3)[C@@H](C)O[C@H]2O[C@H]2C#C/C=C\C#C[C@]3(O)CC(=O)C(NC(=O)OC)=C2/C3=C\CSSc2ncccc2C(=O)O)C[C@@H]1OC (stereo in doubt) [Example P46]
- IC50 [1]: 0.77 nM
- IC50 [2]: 0.025 nM
- IC50 [3]: 0.176 nM
- IC50 [4]: 0.02 nM
- IC50 [5]: 0.544 nM
- IC50 [6]: 0.039 nM
- IC50 [7]: 0.046 nM
- IC50 [8]: 2.83 nM

Compound: CCN[C@H]1CO[C@@H](O[C@H]2[C@H](O[C@H]3C#C/C=C\C#C[C@]4(O)CC(=O)C(NC(=O)OC)=C3/C4=C\CSSC(C)C)O[C@H](C)[C@@H](NO[C@H]3C[C@H](O)[C@H](SC(=O)c4c(C)c(I)c(O[C@@H]5O[C@@H](C)[C@H](O)[C@@H](OC)[C@H]5O)c(OC)c4OC)[C@@H](C)O3)[C@@H]2O)C[C@@H]1OC [Example P1]
- IC50 [1]: 0.003 nM
- IC50 [2]: 0.003 nM
- IC50 [3]: 0.071 nM
- IC50 [4]: 0.003 nM
- IC50 [5]: 0.007 nM
- IC50 [6]: 0.006 nM
- IC50 [7]: 0.028 nM
- IC50 [8]: 0.021 nM
